Tests used:
Format in all cases: in vivo
[1] = system: Sectaria Viridis - SETVI; assay: Greenhouse post-emergence herbicide trial, Sectaria Viridis; details: 200 L/ha
Text: (§1) Standard post emergence herbicide application procedures were used, as described below, to apply inventive compounds in combination with sulfonylurea herbicides.
(§2) Seed of monocotyledonous and dicotyledonous harmful plants such as Brassica napus (BRSNW) Abutilon theophrasti (ABUTH), Alopecurus myosuroides (ALOMY), Amaranthus retroflexus (AMARE), Digitaria Sanguinalis (DIGSA), Echinochloa crus-galli (ECHCG), Erigeron canadensis (ERICA), Galium aparine (GALAP), Lolium perenne (LOLPE), Sectaria viridis (SETVI), Solanun nigrum (SOLNI), Viola arvensis (VIOAR) were sowed in 18 cm^2 pots. The plants were placed in a greenhouse under controlled environmental conditions, and sub-irrigation. About one week after emergence, seedlings were thinned as needed, including removal of any unhealthy or abnormal plants, to create a uniform series of test pots.
(§3) The plants were maintained for the duration of the test in the greenhouse, where they received a mean of 70 μmol m-2 s-1 of light per day/night. Temperatures averages about 24° C. during the day and about 20° C. during the night. Plants were sub-irrigated throughout the test to ensure adequate soil moisture levels.
(§4) Pots were assigned to different treatment in a randomized experimental design. A set of pots was left untreated as a reference against which effects of the treatments could later be evaluated. Application of tested formulations was made in a spray cabin model 01S-15E designed by CheckTec using the following parameters: • Two edge nozzle Lechler OC2, 200 L/ha, 3 bars. • Two edge nozzle Lechler OC3, 500 L/ha, 3 bars.
(§5) The distance of the nozzle from the plants was between 50 to 53 cm. and the nozzle spacing was 50 cm.
(§6) After treatment, pots were returned to the greenhouse until ready for evaluation. Evaluations were performed at different times after application (DAT: days after treatment), depending on the experiment.
(§7) For evaluation of herbicidal effectiveness, all plants in the test were examined by a single technician, who recorded percent control, a visual measurement of the effectiveness of each treatment by comparison with untreated plants. […] The reported % control values represent the average for all replicates of each treatment.
(§8) Iodosulfuron-methyl-sodium and Nicosulfuron were applied as dilutions of the active ingredient in water.

[2] = system: Galium aparine - GALAP; assay: Greenhouse post-emergence herbicide trial, Galium aparine; details: 200 L/ha
Text: as §1, §2, §3, §4, §5, §6, §7, §8

[3] = system: Solanum nigrum - SOLNI; assay: Greenhouse post-emergence herbicide trial, Solanum nigrum
Text: as §1, §2, §3, §4, §5, §6, §7, §8

[4] = system: Brassica napus - BRSNW; assay: Greenhouse post-emergence herbicide trial, Brassica napus; details: 200 L/ha
Text: as §1, §2, §3, §4, §5, §6, §7, §8

[5] = system: Lolium perenne - LOLPE; assay: Greenhouse post-emergence herbicide trial, Lolium perenne; details: 200 L/ha
Text: as §1, §2, §3, §4, §5, §6, §7, §8

[6] = Nicosulfuron 40 g Al/ha, 10 DAT
[7] = Nicosulfuron 40 g Al/ha, 16 DAT
[8] = Nicosulfuron 40 g Al/ha, 22 DAT
[9] = Nicosulfuron 40 g Al/ha, 28 DAT
[10] = Iodosulfuron-methyl-sodium 10 g Al/ha, 1 DAT
[11] = Iodosulfuron-methyl-sodium 10 g Al/ha, 2 DAT
[12] = Iodosulfuron-methyl-sodium 10 g Al/ha, 7 DAT
[13] = Iodosulfuron-methyl-sodium 10 g Al/ha, 10 DAT
[14] = Iodosulfuron-methyl-sodium 10 g Al/ha, 16 DAT
[15] = Iodosulfuron-methyl-sodium 10 g Al/ha, 22 DAT
[16] = Iodosulfuron-methyl-sodium 10 g Al/ha, 28 DAT

COc1cc(OC)nc(NC(=O)NS(=O)(=O)c2ncccc2C(=O)N(C)C)n1 [Nicosulfuron, nicosulfuron, reference compound]
Effectiveness control ([1]; Nicosulfuron 40 g Al/ha, 1 DAT): 0.00% | Effectiveness control ([1]; Nicosulfuron 40 g Al/ha, 2 DAT): 0.00% | Effectiveness control ([1]; Nicosulfuron 40 g Al/ha, 7 DAT): 5.00% | Effectiveness control [1, 6]: 7.00% | Effectiveness control [1, 7]: 10.75% | Effectiveness control [1, 8]: 7.75% | Effectiveness control [1, 9]: 7.00% | Effectiveness control ([2]; Nicosulfuron 40 g Al/ha, 1 DAT): 0.00% | Effectiveness control ([2]; Nicosulfuron 40 g Al/ha, 2 DAT): 0.00% | Effectiveness control ([2]; Nicosulfuron 40 g Al/ha, 7 DAT): 3.00% | Effectiveness control [2, 6]: 10.00% | Effectiveness control [2, 7]: 12.75% | Effectiveness control [2, 8]: 12.75% | Effectiveness control [2, 9]: 12.75%

COC(=O)c1ccc(I)cc1S(=O)(=O)[N-]C(=O)Nc1nc(C)nc(OC)n1.[Na+] [Iodosulfuron-methyl-sodium, reference compound]
Effectiveness control ([3]; 200 L/ha, Iodosulfuron-methyl-sodium 10 g Al/ha, 1 DAT): 0.00% | Effectiveness control ([3]; 200 L/ha, Iodosulfuron-methyl-sodium 10 g Al/ha, 2 DAT): 0.00% | Effectiveness control ([3]; 200 L/ha, Iodosulfuron-methyl-sodium 10 g Al/ha, 7 DAT): 0.00% | Effectiveness control ([3]; 200 L/ha, Iodosulfuron-methyl-sodium 10 g Al/ha, 15 DAT): 12.50% | Effectiveness control ([3]; 200 L/ha, Iodosulfuron-methyl-sodium 10 g Al/ha, 21 DAT): 13.75% | Effectiveness control ([3]; 500 L/ha, Iodosulfuron-methyl-sodium 10 g Al/ha, 1 DAT): 0.00% | Effectiveness control ([3]; 500 L/ha, Iodosulfuron-methyl-sodium 10 g Al/ha, 2 DAT): 0.000% | Effectiveness control ([3]; 500 L/ha, Iodosulfuron-methyl-sodium 10 g Al/ha, 7 DAT): 5.00% | Effectiveness control ([3]; 500 L/ha, Iodosulfuron-methyl-sodium 10 g Al/ha, 15 DAT): 25.00% | Effectiveness control ([3]; 500 L/ha, Iodosulfuron-methyl-sodium 10 g Al/ha, 21 DAT): 47.50% | Effectiveness control [4, 10]: 0.00% | Effectiveness control [4, 11]: 0.00% | Effectiveness control [4, 12]: 6.75% | Effectiveness control [4, 13]: 8.50% | Effectiveness control [4, 14]: 50.75% | Effectiveness control [4, 15]: 99.00% | Effectiveness control [4, 16]: 99.00% | Effectiveness control [5, 10]: 0.00% | Effectiveness control [5, 11]: 0.00% | Effectiveness control [5, 12]: 0.00% | Effectiveness control [5, 13]: 0.00% | Effectiveness control [5, 14]: 0.00% | Effectiveness control [5, 15]: 0.00% | Effectiveness control [5, 16]: 0.00%

Pelargonic acid 6 EO ester methyl ether [A1]
Effectiveness control ([3]; 200 L/ha, A1 0.1 % w/w, 1 DAT): 0.00% | Effectiveness control ([3]; 200 L/ha, A1 0.1 % w/w, 2 DAT): 0.00% | Effectiveness control ([3]; 200 L/ha, A1 0.1 % w/w, 7 DAT): 0.00% | Effectiveness control ([3]; 200 L/ha, A1 0.1 % w/w, 15 DAT): 0.00% | Effectiveness control ([3]; 200 L/ha, A1 0.1 % w/w, 21 DAT): 0.00% | Effectiveness control ([3]; 200 L/ha, A1 2.5 % w/w, 1 DAT): 0.00% | Effectiveness control ([3]; 200 L/ha, A1 2.5 % w/w, 2 DAT): 0.00% | Effectiveness control ([3]; 200 L/ha, A1 2.5 % w/w, 7 DAT): 0.00% | Effectiveness control ([3]; 200 L/ha, A1 2.5 % w/w, 15 DAT): 0.00% | Effectiveness control ([3]; 200 L/ha, A1 2.5 % w/w, 21 DAT): 0.00% | Effectiveness control ([3]; 200 L/ha, A1 5 % w/w, 1 DAT): 0.75% | Effectiveness control ([3]; 200 L/ha, A1 5 % w/w, 2 DAT): 3.50% | Effectiveness control ([3]; 200 L/ha, A1 5 % w/w, 7 DAT): 3.50% | Effectiveness control ([3]; 200 L/ha, A1 5 % w/w, 15 DAT): 0.00% | Effectiveness control ([3]; 200 L/ha, A1 5 % w/w, 21 DAT): 0.00% | Effectiveness control ([3]; 200 L/ha, A1 10 % w/w, 1 DAT): 25.00% | Effectiveness control ([3]; 200 L/ha, A1 10 % w/w, 2 DAT): 48.50% | Effectiveness control ([3]; 200 L/ha, A1 10 % w/w, 7 DAT): 50.50% | Effectiveness control ([3]; 200 L/ha, A1 10 % w/w, 15 DAT): 47.50% | Effectiveness control ([3]; 200 L/ha, A1 10 % w/w, 21 DAT): 38.75% | Effectiveness control ([3]; 500 L/ha, A1 0.1 % w/w, 1 DAT): 0.00% | Effectiveness control ([3]; 500 L/ha, A1 0.1 % w/w, 2 DAT): 0.00% | Effectiveness control ([3]; 500 L/ha, A1 0.1 % w/w, 7 DAT): 0.00% | Effectiveness control ([3]; 500 L/ha, A1 0.1 % w/w, 15 DAT): 0.00% | Effectiveness control ([3]; 500 L/ha, A1 0.1 % w/w, 21 DAT): 0.00% | Effectiveness control ([3]; 500 L/ha, A1 2.5 % w/w, 1 DAT): 10.00% | Effectiveness control ([3]; 500 L/ha, A1 2.5 % w/w, 2 DAT): 21.25% | Effectiveness control ([3]; 500 L/ha, A1 2.5 % w/w, 7 DAT): 13.75% | Effectiveness control ([3]; 500 L/ha, A1 2.5 % w/w, 15 DAT): 7.75% | Effectiveness control ([3]; 500 L/ha, A1 2.5 % w/w, 21 DAT): 5.00% | Effectiveness control ([3]; 500 L/ha, A1 5 % w/w, 1 DAT): 26.00% | Effectiveness control ([3]; 500 L/ha, A1 5 % w/w, 2 DAT): 42.50% | Effectiveness control ([3]; 500 L/ha, A1 5 % w/w, 7 DAT): 32.50% | Effectiveness control ([3]; 500 L/ha, A1 5 % w/w, 15 DAT): 28.75% | Effectiveness control ([3]; 500 L/ha, A1 5 % w/w, 21 DAT): 27.50% | Effectiveness control ([3]; 500 L/ha, A1 10 % w/w, 1 DAT): 65.50% | Effectiveness control ([3]; 500 L/ha, A1 10 % w/w, 2 DAT): 75.50% | Effectiveness control ([3]; 500 L/ha, A1 10 % w/w, 7 DAT): 72.50% | Effectiveness control ([3]; 500 L/ha, A1 10 % w/w, 15 DAT): 63.75% | Effectiveness control ([3]; 500 L/ha, A1 10 % w/w, 21 DAT): 53.00% | Effectiveness control ([1]; A1 7.5 % w/w, 1 DAT): 19.25% | Effectiveness control ([1]; A1 7.5 % w/w, 2 DAT): 21.25% | Effectiveness control ([1]; A1 7.5 % w/w, 7 DAT): 21.25% | Effectiveness control ([1]; A1 7.5 % w/w, 10 DAT): 20.00% | Effectiveness control ([1]; A1 7.5 % w/w, 16 DAT): 16.00% | Effectiveness control ([1]; A1 7.5 % w/w, 22 DAT): 16.00% | Effectiveness control ([1]; A1 7.5 % w/w, 28 DAT): 0.00% | Effectiveness control ([2]; A1 7.5 % w/w, 1 DAT): 31.75% | Effectiveness control ([2]; A1 7.5 % w/w, 2 DAT): 34.00% | Effectiveness control ([2]; A1 7.5 % w/w, 7 DAT): 35.75% | Effectiveness control ([2]; A1 7.5 % w/w, 10 DAT): 20.00% | Effectiveness control ([2]; A1 7.5 % w/w, 16 DAT): 10.75% | Effectiveness control ([2]; A1 7.5 % w/w, 22 DAT): 10.75% | Effectiveness control ([2]; A1 7.5 % w/w, 28 DAT): 10.75% | Effectiveness control ([4]; A1 7.5 % w/w, 1 DAT): 74.25% | Effectiveness control ([4]; A1 7.5 % w/w, 2 DAT): 78.00% | Effectiveness control ([4]; A1 7.5 % w/w, 7 DAT): 75.00% | Effectiveness control ([4]; A1 7.5 % w/w, 10 DAT): 56.25% | Effectiveness control ([4]; A1 7.5 % w/w, 16 DAT): 39.25% | Effectiveness control ([4]; A1 7.5 % w/w, 22 DAT): 33.50% | Effectiveness control ([4]; A1 7.5 % w/w, 28 DAT): 32.50% | Effectiveness control ([5]; A1 7.5 % w/w, 1 DAT): 11.50% | Effectiveness control ([5]; A1 7.5 % w/w, 2 DAT): 11.50% | Effectiveness control ([5]; A1 7.5 % w/w, 7 DAT): 5.00% | Effectiveness control ([5]; A1 7.5 % w/w, 10 DAT): 0.00% | Effectiveness control ([5]; A1 7.5 % w/w, 16 DAT): 0.00% | Effectiveness control ([5]; A1 7.5 % w/w, 22 DAT): 0.00% | Effectiveness control ([5]; A1 7.5 % w/w, 28 DAT): 0.00%

Reference: patent US20220151229A1, “Synergistic Herbicidal Combinations” (Clariant International Ltd., priority 2019, published 2022)
